Values quoted from earlier work, collected in patent US8962668B2, “Treatment of length dependent neuropathy” (Arcion Therapeutics, Inc., priority 2005, dated 2015).

System: patients with painful diabetic neuropathy

## Clc1cccc(Cl)c1N=C1NCCN1 [clonidine]
placebo-controlled cross-over pain trial (Zeigler et al.)
  difference between clonidine transdermal patches and placebo patches: no statistically significant difference
Responders rechallenged, highest transdermal patch dosage, p<0.015
  pain reduction relative to placebo: modest although statistically significant
Transdermal patches, twelve of forty-one patients who completed initial course (Byas-Smith et al.)
  clonidine responders: 29%
